Results published in patent publication US20040175401A1, “Enhanced parmacokinetic profile of hydrophobic substances” (priority 2001, published 2004).
Like-named read-outs stand apart in the source and are kept apart here.

How the values were obtained:
[1] = n-octanol/water partition coefficient LogPoct calculated from solubility data; settings: calculated as logPoct = (0.99 - logSw)/1.34
Description: where logSw is the molar solubility and logPoct is the water-oil partition coefficient. Using this equation, values for logPoct can be calculated from solubility data.

[2] = molar aqueous solubility, log value; cited from earlier work
[3] = for AUC(0-∞) / Cmax / T1/2 / Tmax: mean, n = 6
Method: Six Yucatan mini-pigs weighing 20-25 kg were used. […] A total of 6 animals were utilized in a full crossover design where each animal received a 1.0 mg dose by all administration routes in an injection volume of 0.1 mL.
The intravenous dose was administered an ear vein catheter. Subcutaneous delivery was through a standard 0.5 inch, 30 gauge needle. Delivery to the dermis was through a three point microneedle array having three 34 gauge needles with 7 mm spacing and 1 mm depth to right flank of the animal between the rib cage and the rear leg. Subcutaneous and intravenous administration was by manual injection seconds. Administration to the dermis was at a rate of 90 μL/min by a syringe pump.
The study design was a full crossover with each animal receiving intravenous, subcutaneous and dermal administration. Each animal received three treatments over a two-week period with a minimal washout period of 2 days between subsequent doses. Dosing was according to the schedule shown below in Table 2.
Blood samples were obtained from the vena cava access port immediately before dosing and at 5, 10, 15, 20, 30, 45, 60 minutes and 2, 3, 4, 6, 8, 10, 14 and 24 hours after administration. Timing was started at the cessation of injection for a given method. The venous samples were collected into EDTA containing Vacutainer tubes, centrifuged at approximately 1000 g for 10 minutes at 4° C. After centrifugation, the plasma layer was transferred to plastic storage vials and stored frozen at −70° C. until assayed.
Assay of the pig plasma samples was performed by HPLC analysis. Results are shown below in Tables 3
Pharmacokinetic parameters were estimated using Watson Drug Metabolism Laboratory Information Management System, version 6.2.0.02 (Innaphase Corp., Philadelphia, Pa.). Parameters determined were the maximal plasma concentration, Cmax, time to maximal plasma concentration Tmax, area under the curve estimated to t=infinity, Tmax and the half-life for decrease in plasma concentration, T1/2.

CCCCCCCC(=O)OCN1C(=O)NC(c2ccccc2)(c2ccccc2)C1=O [3-octanoloxymethyl-5,5-diphenylhydantoin]
LogPoct [1]: 5.60 | LogSw [2]: −6.52 moles/L

CCCCC(=O)OCN1C(=O)NC(c2ccccc2)(c2ccccc2)C1=O [3-pentanoyloxymethyl-5,5-diphenylhydantoin]
LogSw [2]: −4.68 moles/L

O=C1NC(=O)C2(CC2)C(=O)N1 [5,5-(CH2)2-barbituric acid]
LogPoct [1]: 2.15

O=C1NC(=O)C2(CCC2)C(=O)N1 [5,5-(CH2)3-barbituricacid]
LogPoct [1]: 1.98

O=C1NC(=O)C2(CCCC2)C(=O)N1 [5,5-(CH2)4-barbituric acid]
LogPoct [1]: 3.97

O=C1NC(=S)NC(=O)C12CCCCC2 [5,5-(CH2)5-2-thiobarbituric acid]
LogPoct [1]: 3.32 | LogSw [2]: −3.46 moles/L

O=C1NC(=O)C2(CCCCC2)C(=O)N1 [5,5-(CH2)5-barbituric acid]
LogPoct [1]: 3.02

O=C1NC(=O)C2(CCCCCCC2)C(=O)N1 [5,5-(CH2)7-barbituric acid]
LogPoct [1]: 2.96

O=C1NC(=O)C2(CCCCCCCCCC2)C(=O)N1 [5,5-(CH2)10-barbituric acid]
LogPoct [1]: 4.16 | LogSw [2]: −4.59 moles/L

O=C1NC(=O)C2(CCCCCCCCCCC2)C(=O)N1 [5,5-(CH2)11-barbituric acid]
LogPoct [1]: 5.07 | LogSw [2]: −5.80 moles/L

CC(C)C1(C(C)C)C(=O)NC(=O)NC1=O [5,5-di-iPr-barbituric acid]
LogPoct [1]: 2.81

O=C1NC(=O)C(c2ccccc2)(c2ccccc2)N1 [5,5-diphenyhlhydantoin]
LogPoct [1]: 3.80 | LogSw [2]: −4.10 moles/L

O=C1NC(=O)C(c2ccccc2)(c2ccccc2)C(=O)N1 [5,5-diphenylbarbituric acid]
LogPoct [1]: 3.87

CCCC(C)C1(CC)C(=O)NC(=S)NC1=O (stereo not shown) [5-Et-5-(1-methylbutyl)-2-thiobarbituric acid]
LogPoct [1]: 3.49 | LogSw [2]: −3.68 moles/L

CCC1(CC=C(C)C)C(=O)NC(=O)NC1=O [5-Et-5-(3-methylbut-2-enyl)-barbituric acid]
LogPoct [1]: 2.42

C=CCC1(CC)C(=O)NC(=O)NC1=O [5-Et-5-allyl-barbituric acid]
LogPoct [1]: 1.64 | LogSw [2]: −1.61 moles/L

C=CCC1(C)C(=O)NC(=O)NC1=O [5-Me-5-allylbartituric acid]
LogPoct [1]: 1.60

CCC1(C)C(=O)NC(=O)NC1=O [5-Me-5-ethylbarbituric acid]
LogPoct [1]: 1.66 | LogSw [2]: −1.23 moles/L

CC1(c2ccccc2)C(=O)NC(=O)NC1=O [5-Me-5-phenylbarbituric acid]
LogPoct [1]: 2.51 | LogSw [2]: −2.38 moles/L

CCC1(CC)C(=O)NC(=S)NC1=O [5-diethyl-2-thiobarbituric acid]
LogPoct [1]: 2.36

C=CCC1(C(C)C)C(=O)NC(=O)NC1=O [5-iPr-5-allyl-barbituric acid]
LogSw [2]: −1.71 moles/L

S=c1cc(-c2ccccc2)ss1 [5-phenyldithiolethione]
LogPoct [1]: 4.95 | LogSw [2]: −5.64 moles/L

CC(C)=CCC1(C(C)(C)C)C(=O)NC(=O)NC1=O [5-tBu-5-(3-methylbut-2-enyl)-barbituric acid]
LogPoct [1]: 3.39

CN[C@@H]1Cc2cccc3[nH]c(=S)n(c23)C1 [(R)-5,6-dihydro-5-(methylamino)-4H-imidazo[4,5-ij]-quinoline-2(1H)-thione]
Plasma Concentration, Mean ([3]; ID (dermis), 1.0 mg dose, 5 min): 24.8 ng/mL | Plasma Concentration, Mean ([3]; ID (dermis), 1.0 mg dose, 10 min): 22.5 ng/mL | Plasma Concentration, Mean ([3]; ID (dermis), 1.0 mg dose, 15 min): 16.4 ng/mL | Plasma Concentration, Mean ([3]; ID (dermis), 1.0 mg dose, 20 min): 18.0 ng/mL | Plasma Concentration, Mean ([3]; ID (dermis), 1.0 mg dose, 30 min): 14.0 ng/mL | Plasma Concentration, Mean ([3]; ID (dermis), 1.0 mg dose, 45 min): 9.9 ng/mL | Plasma Concentration, Mean ([3]; ID (dermis), 1.0 mg dose, 1 hr): 9.0 ng/mL | Plasma Concentration, Mean ([3]; ID (dermis), 1.0 mg dose, 2 hr): 5.7 ng/mL | Plasma Concentration, Mean ([3]; ID (dermis), 1.0 mg dose, 3 hr): 4.2 ng/mL | Plasma Concentration, Mean ([3]; ID (dermis), 1.0 mg dose, 4 hr): 3.6 ng/mL | Plasma Concentration, Mean ([3]; ID (dermis), 1.0 mg dose, 6 hr): 0.4 ng/mL | Plasma Concentration, Mean ([3]; ID (dermis), 1.0 mg dose, 8 hr): 0 ng/mL | Plasma Concentration, Mean ([3]; ID (dermis), 1.0 mg dose, 10 hr): 0 ng/mL | Plasma Concentration, Mean ([3]; ID (dermis), 1.0 mg dose, 14 hr): 0 ng/mL | Plasma Concentration, Mean ([3]; ID (dermis), 1.0 mg dose, 24 hr): 0 ng/mL | AUC(0-∞) ([3]; ID (dermis), 1.0 mg dose): 33.6 ng·h/mL | Cmax ([3]; ID (dermis), 1.0 mg dose): 26.7 ng/mL | T1/2 ([3]; ID (dermis), 1.0 mg dose): 96.6 min | Tmax ([3]; ID (dermis), 1.0 mg dose): 8.34 min | Heterogeneity of Regression analysis of plasma values, dermis versus intravenous administration ([3]; ID versus IV, both different from SC): not different from each other | Cmax values following administration to the dermis compared with subcutaneous administration ([3]; ID versus SC, 1.0 mg dose): consistently greater | Plasma levels of drug after administration into the dermis compared with subcutaneous administration ([3]; ID versus SC, 1.0 mg dose): higher plasma levels | Tmax values following administration to the dermis compared with subcutaneous administration ([3]; ID versus SC, 1.0 mg dose): consistently lesser | Plasma Concentration, Mean ([3]; IV, 1.0 mg dose, 5 min): 29.8 ng/mL | Plasma Concentration, Mean ([3]; IV, 1.0 mg dose, 10 min): 20.5 ng/mL | Plasma Concentration, Mean ([3]; IV, 1.0 mg dose, 15 min): 18.5 ng/mL | Plasma Concentration, Mean ([3]; IV, 1.0 mg dose, 20 min): 15.3 ng/mL | Plasma Concentration, Mean ([3]; IV, 1.0 mg dose, 30 min): 13.1 ng/mL | Plasma Concentration, Mean ([3]; IV, 1.0 mg dose, 45 min): 10.7 ng/mL | Plasma Concentration, Mean ([3]; IV, 1.0 mg dose, 1 hr): 9.1 ng/mL | Plasma Concentration, Mean ([3]; IV, 1.0 mg dose, 2 hr): 6.7 ng/mL | Plasma Concentration, Mean ([3]; IV, 1.0 mg dose, 3 hr): 2.8 ng/mL | Plasma Concentration, Mean ([3]; IV, 1.0 mg dose, 4 hr): 1.6 ng/mL | Plasma Concentration, Mean ([3]; IV, 1.0 mg dose, 6 hr): 2.6 ng/mL | Plasma Concentration, Mean ([3]; IV, 1.0 mg dose, 8 hr): 0 ng/mL | Plasma Concentration, Mean ([3]; IV, 1.0 mg dose, 10 hr): 0 ng/mL | Plasma Concentration, Mean ([3]; IV, 1.0 mg dose, 14 hr): 0 ng/mL | Plasma Concentration, Mean ([3]; IV, 1.0 mg dose, 24 hr): 0 ng/mL | AUC(0-∞) ([3]; IV, 1.0 mg dose): 32.4 ng·h/mL | Cmax ([3]; IV, 1.0 mg dose): 29.8 ng/mL | T1/2 ([3]; IV, 1.0 mg dose): 87 min | Tmax ([3]; IV, 1.0 mg dose): 4.98 min | Plasma Concentration, Mean ([3]; SC, 1.0 mg dose, 5 min): 10.0 ng/mL | Plasma Concentration, Mean ([3]; SC, 1.0 mg dose, 10 min): 15.3 ng/mL | Plasma Concentration, Mean ([3]; SC, 1.0 mg dose, 15 min): 16.0 ng/mL | Plasma Concentration, Mean ([3]; SC, 1.0 mg dose, 20 min): 14.5 ng/mL | Plasma Concentration, Mean ([3]; SC, 1.0 mg dose, 30 min): 14.0 ng/mL | Plasma Concentration, Mean ([3]; SC, 1.0 mg dose, 45 min): 9.9 ng/mL | Plasma Concentration, Mean ([3]; SC, 1.0 mg dose, 1 hr): 8.9 ng/mL | Plasma Concentration, Mean ([3]; SC, 1.0 mg dose, 2 hr): 5.6 ng/mL | Plasma Concentration, Mean ([3]; SC, 1.0 mg dose, 3 hr): 4.1 ng/mL | Plasma Concentration, Mean ([3]; SC, 1.0 mg dose, 4 hr): 2.2 ng/mL | Plasma Concentration, Mean ([3]; SC, 1.0 mg dose, 6 hr): 1.6 ng/mL | Plasma Concentration, Mean ([3]; SC, 1.0 mg dose, 8 hr): 0.6 ng/mL | Plasma Concentration, Mean ([3]; SC, 1.0 mg dose, 10 hr): 0 ng/mL | Plasma Concentration, Mean ([3]; SC, 1.0 mg dose, 14 hr): 0 ng/mL | Plasma Concentration, Mean ([3]; SC, 1.0 mg dose, 24 hr): 0 ng/mL | AUC(0-∞) ([3]; SC, 1.0 mg dose): 32.1 ng·h/mL | Cmax ([3]; SC, 1.0 mg dose): 16.9 ng/mL | T1/2 ([3]; SC, 1.0 mg dose): 90 min | Tmax ([3]; SC, 1.0 mg dose): 13.3 min

CC(C)CN(C[C@@H](O)[C@H](Cc1ccccc1)NC(=O)O[C@H]1CCOC1)S(=O)(=O)c1ccc(N)cc1 [Amprenavir]
LogPoct [1]: 3.72 | LogSw [2]: −4.00 moles/L

COc1ccc(-c2cc(=S)ss2)cc1 [Anethole trithione]
LogPoct [1]: 5.07

C=C(C)C1CC=C(C)C(=O)C1 (stereo not shown) [Carvone]
LogPoct [1]: 1.99 | LogSw [2]: −1.67 moles/L

O=c1[nH]cnc2c1ncn2[C@H]1CC[C@@H](CO)O1 [Didanosine]
LogSw [2]: −0.90 moles/L

O=C1Nc2ccc(Cl)cc2[C@@](C#CC2CC2)(C(F)(F)F)O1 [Efavirenz]
LogPoct [1]: 4.15 | LogSw [2]: −4.57 moles/L

C=CC(=C)CCC=C(C)C [Myrcene]
LogPoct [1]: 3.41 | LogSw [2]: −3.58 moles/L

CC(=O)Nc1nc2c(ncn2COCCOC(C)=O)c(=O)[nH]1 [N2,O-diacetylacyclovir]
LogPoct [1]: 2.75 | LogSw [2]: −2.70 moles/L

CC(=O)Nc1nc2c(ncn2COCCO)c(=O)[nH]1 [N2-acetylacyclovir]
LogPoct [1]: 2.17

CC(=O)OCCOCn1cnc2c(=O)[nH]c(N)nc21 [O-acetylacyclovir]
LogPoct [1]: 1.38 | LogSw [2]: −0.86 moles/L

CC(=O)/C=C/C1C(C)=CCCC1(C)C (stereo not shown) [a-ionone]
LogSw [2]: −3.06 moles/L

S=c1ccss1 [dithiolethione]
LogPoct [1]: 2.59

C=C(C)[C@H]1CC=C(C)CC1 [limonene]
LogSw [2]: −3.41 moles/L
